Like-named read-outs stand apart in the source and are kept apart here.
Key:
B. subtilis = details: duplicate experiments
E. coli = details: duplicate experiments
S. aureus = details: duplicate experiments
M. luteus = format: cell-based; details: duplicate experiments
Method in brief: (§1)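 Broth dilution MIC following CLSI M07-A9; overnight TSB cultures diluted to 0.5×10^6 CFU in TSB and incubated with compound at 37° C for 16 hours. MIC read by visual inspection of growth.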

VRE 155 = format: cell-based; details: duplicate experiments
Method in brief: as §1

MRSA USA300 = format: cell-based, Staphylococcus aureus; details: duplicate experiments
Method in brief: as §1

MRSA WKZ2 = format: cell-based, Staphylococcus aureus; details: duplicate experiments
Method in brief: as §1

erythrocytes = experiment: Hemolysis assay; details: human erythrocytes, 1 h, at 32 μg/mL
Protocol: Human whole blood was centrifuged at 600×g for 15 min and levels of plasma and hematocrit were marked on the tube. Plasma was removed and the erythrocytes washed 3× with PBS (centrifuging at 600×g for 15 mins). After discarding the supernatant, the packed cells were stored on ice. 100 μL of the peptides (128 μg/mL in PBS, 2% DMSO) as well as a control solution comprised of 2% DMSO in PBS were added to the top row of a polypropylene, round-bottom 96 well plate and 50 μL of PBS to the rest of the wells. The peptides and the DMSO control solutions were then diluted serially down the rows. 200 μL of the packed cells were added to PBS (10 mL) and 50 μL of this suspension was added to each well. A column with DI water containing 0.1% Triton X-100 was used as the 100% lysis control, and the column containing the serially-diluted PBS (1.0% DMSO) control served as the 0% lysis reference. The cells were incubated at 37° C. for 1 h. After incubation the plates were centrifuged (800×g, 5 min) and 25 μL of the supernatant was added to 100 μL DI water in a flat-bottom plate (polystyrene). The absorption at 414 nm was recorded to measure the amount of free hemoglobin.

## vancomycin
B. subtilis
  MIC values B. subtilis: 0.03 to 0.06 µg/mL
E. coli
  MIC values E. coli: >10 µg/mL
S. aureus
  MIC values S. aureus: 0.25 to 0.31 µg/mL
M. luteus
  MIC values M. luteus: 0.03 µg/mL
VRE 155
  MIC values VRE 155: >10 µg/mL
MRSA USA300
  MIC values MRSA USA300: 0.625 µg/mL
MRSA WKZ2
  MIC values MRSA WKZ2: 0.625 µg/mL
erythrocytes
  hemolysis: negligible hemolysis
Thirty VRE strains; VRE strain E0013, GBR, vanA
  MIC: 32 µg/mL
Thirty VRE strains; VRE strain E0072, NLD, vanA
  MIC: 8 µg/mL
Thirty VRE strains; VRE strain E0300, USA, vanA
  MIC: >128 µg/mL
Thirty VRE strains; VRE strain E0321, FRA, vanA
  MIC: >128 µg/mL
Thirty VRE strains; VRE strain E0333, ISR, vanA
  MIC: >128 µg/mL
Thirty VRE strains; VRE strain E0338, ITA, vanA
  MIC: >128 µg/mL
Thirty VRE strains; VRE strain E0341, GBR, vanA
  MIC: 128 µg/mL
Thirty VRE strains; VRE strain E0506, AUS, vanA
  MIC: >128 µg/mL
Thirty VRE strains; VRE strain E0745, NLD, vanA
  MIC: 64 µg/mL
Thirty VRE strains; VRE strain E1130, USA, vanA
  MIC: >128 µg/mL
Thirty VRE strains; VRE strain E1441, GRC, vanA
  MIC: 128 µg/mL
Thirty VRE strains; VRE strain E1679, BRA, vanA
  MIC: >128 µg/mL
Thirty VRE strains; VRE strain E1763, BEL, vanA
  MIC: >128 µg/mL
Thirty VRE strains; VRE strain E2297, USA, vanA
  MIC: 128 µg/mL
Thirty VRE strains; VRE strain E2359, SGP, vanB
  MIC: <1-1 μg/mL
Thirty VRE strains; VRE strain E2365, HUN, vanB
  MIC: <1 µg/mL
Thirty VRE strains; VRE strain E2373, SRB, vanA
  MIC: >128 µg/mL
Thirty VRE strains; VRE strain E6016, LVA, vanA
  MIC: 128 µg/mL
Thirty VRE strains; VRE strain E7312, NLD, vanA
  MIC: 64 µg/mL
Thirty VRE strains; VRE strain E7314, NLD, vanB
  MIC: >128 µg/mL
Thirty VRE strains; VRE strain E7319, NLD, vanA
  MIC: >128 µg/mL
Thirty VRE strains; VRE strain E7329, NLD, vanA
  MIC: <1 µg/mL
Thirty VRE strains; VRE strain E7401, NLD, vanB
  MIC: 16 µg/mL
Thirty VRE strains; VRE strain E7403, NLD, vanB
  MIC: <1 µg/mL
Thirty VRE strains; VRE strain E7413, NLD, vanA
  MIC: >128 µg/mL
Thirty VRE strains; VRE strain E7424, NLD, vanB
  MIC: >128 µg/mL
Thirty VRE strains; VRE strain E7464, NLD, vanB
  MIC: 2 µg/mL
Thirty VRE strains; VRE strain E8218, NLD, vanB
  MIC: 8 µg/mL
Thirty VRE strains; VRE strain E8235, NLD, vanB
  MIC: 8 µg/mL
Thirty VRE strains; VRE strain E8237, NLD, vanA
  MIC: 128 µg/mL
Thirty VRE strains; thirty VRE strains
  MIC50: MIC50 = 128 μg/mL
  MIC90: MIC90 = >128 μg/mL

Source: patent US20170362283A1, “NISIN-BASED COMPOUNDS AND USE THEREOF IN THE TREATMENT OF BACTERIAL INFECTIONS” (UNIVERSITEIT UTRECHT HOLDING B.V., priority 2015, published 2017)
